Data published in patent publication US3969363A, “Derivatives of 1-phenoxy-3-amino-propan-2-ol and process for their production” (Cassella Farbwerke Mainkur Aktiengesellschaft, priority 1973, dated 1976).

Key:
[1] = target: T1, β1-receptors of the heart (Canis lupus familiaris, UniProt P79148); experiment: Blocking of Isoproterenol-induced increase of maximum rate of left-ventricular pressure rise (Dp/dt max.) in anaesthetised dogs (β1-receptor inhibition); type: in vivo, mongrel dogs; conditions: for ED50: dog, intravenous, 50 % inhibition of reaction to Isoproterenol 0.5 gamma/kg i.v., anaesthetised dogs, read-out: β1-receptor inhibition ED 50; for Relative β1-receptor inhibition (reference substance = 100): relative ED 50, Practolol = 100, lower = more active; for Quotient: ED 50 β2-receptor inhibition / ED 50 β1-receptor inhibition: measure of cardioselective action, higher = better; for Quotient, on basis of reference substance = 1: relative cardioselectivity factor, Practolol = 1
T1 construct: from tissue; host or cells: heart (left ventricle) of the living anaesthetised mongrel dog
T1 sequence (P79148 whole entry): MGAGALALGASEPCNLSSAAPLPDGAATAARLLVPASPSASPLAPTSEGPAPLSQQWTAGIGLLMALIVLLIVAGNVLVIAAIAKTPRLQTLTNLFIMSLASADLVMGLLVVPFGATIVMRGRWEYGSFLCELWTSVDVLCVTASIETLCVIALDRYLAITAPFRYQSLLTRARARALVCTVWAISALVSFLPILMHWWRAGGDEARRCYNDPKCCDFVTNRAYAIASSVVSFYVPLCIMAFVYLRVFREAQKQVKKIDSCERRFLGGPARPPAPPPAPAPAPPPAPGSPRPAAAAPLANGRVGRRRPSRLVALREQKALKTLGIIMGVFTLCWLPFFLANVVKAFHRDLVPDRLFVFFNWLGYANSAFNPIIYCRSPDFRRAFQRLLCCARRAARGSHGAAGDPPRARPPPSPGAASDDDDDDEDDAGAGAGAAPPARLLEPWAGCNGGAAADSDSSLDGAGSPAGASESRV
Description: (§1) The blocking action of the compounds according to the invention on the β1-receptors of the heart and on the β2-receptors of the cardiovascular system was investigated as follows: the blood pressure in the left-hand ventricle was measured on mongrel dogs of both sexes under anaesthesia by Chloralose-urethane-morphine and the pressure signal was continuously differentiated by means of an analogue computer (BRUSH Instruments, Cleveland/Ohio) and, inter alia, the rate of pressure increase (Dp/dt) was recorded. In addition, the perfusion of a femoral artery was measured by means of an electromagnetic flow meter (Model […] of Messrs. Statham) and the perfusion was recorded in ml/minutes. […] DUNLOP and […]: Selective blockade of adrenoceptive beta-receptors in the heart. Brit. J. Pharmac. Chemother. (1968) 32, 201-218). The substances to be tested for β-receptor blocking were administered intravenously in increasing dosages to the animals, which had been anaesthetised and stimulated by means of Isoproterenol, and the quantity of substance was determined at which a 50 % inhibition of the two reactions caused by Isoproterenol occurred (ED50). […] The higher this quotient is, the better the cardioselective action.

[2] = target: T2, β2-receptors of the cardiovascular system (Canis lupus familiaris, UniProt P54833); experiment: Blocking of Isoproterenol-induced alteration of peripheral perfusion of the femoral artery in anaesthetised dogs (β2-receptor inhibition); type: in vivo, mongrel dogs; conditions: for ED50: dog, intravenous, 50 % inhibition of reaction to Isoproterenol 0.05 gamma/kg intra-arterial, anaesthetised dogs, read-out: β2-receptor inhibition ED 50; for Relative β2-receptor inhibition (reference substance = 100): relative ED 50, Practolol = 100
T2 construct: from tissue; host or cells: femoral vascular bed of the living anaesthetised mongrel dog
T2 sequence (P54833 whole entry, the tested form may be a part): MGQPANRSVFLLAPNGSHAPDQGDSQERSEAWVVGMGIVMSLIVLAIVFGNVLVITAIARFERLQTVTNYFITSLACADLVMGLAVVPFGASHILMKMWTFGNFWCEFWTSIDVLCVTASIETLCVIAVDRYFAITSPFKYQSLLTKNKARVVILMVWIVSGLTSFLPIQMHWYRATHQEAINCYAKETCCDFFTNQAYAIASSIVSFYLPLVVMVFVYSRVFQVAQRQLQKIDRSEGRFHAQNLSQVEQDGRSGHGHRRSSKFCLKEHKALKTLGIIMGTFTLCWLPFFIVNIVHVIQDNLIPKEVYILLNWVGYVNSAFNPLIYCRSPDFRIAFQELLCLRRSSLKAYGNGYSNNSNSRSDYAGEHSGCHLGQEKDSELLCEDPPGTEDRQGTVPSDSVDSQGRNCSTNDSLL
Description: as §1

Compound | ED50 [1] [mg/kg] | Relative β1-receptor inhibition (reference substance = 100) [1] | ED50 [2] [mg/kg] | Relative β2-receptor inhibition (reference substance = 100) [2] | Quotient: ED 50 β2-receptor inhibition / ED 50 β1-receptor inhibition [1] | Quotient, on basis of reference substance = 1 [1]
Cc1ccc(C(O)CC(C)NCC(O)COc2ccc(Br)cc2)cn1 (centres unmarked) [1-(4-Bromo-phenoxy)-3-(1-[6-methyl-pyridyl-3]-1-hydroxy-butyl-(3)-amino)-propan-2-ol] | 0.074 | 31.1 |  |  |  | 
CCCCCOc1ccc(OCC(O)CNC(C)CC(O)c2ccc(C)nc2)cc1 (centres unmarked) [1-(4-n-Pentyloxy-phenoxy)-3-(1-[6-methyl-pyridyl-3]-1-hydroxy-butyl-(3)-amino)-propan-2-ol] | 0.057 | 29.9 | 7.74 | 29.2 | 136 | 1.2
CCCOc1ccc(OCC(O)CNC(C)CC(O)c2ccc(C)nc2)cc1 (centres unmarked) [1-(4-n-Propoxy-phenoxy)-3-(1-[6-methyl-pyridyl-3]-1-hydroxy-butyl-(3)-amino)-propan-2-ol] | 0.011 | 4.6 | 1.8 | 6.8 | 171 | 1.5
CCCCOc1ccc(OCC(O)CNC(C)CC(O)c2ccc(C)nc2)cc1 (centres unmarked) [1-(4n-Butoxy-phenoxy)-3-(1-[6-methyl-pyridyl-3]-1-hydroxy-butyl-(3)-amino)-propan-2-ol] | 0.067 | 28.2 | 32.7 | 123.2 | 487 | 4.4
CC(=O)Nc1ccc(OCC(O)CNC(C)CC(O)c2ccc(C)nc2)cc1 (centres unmarked) [1-(p-Acetamino-phenoxy)-3-(1-[6-methyl-pyridyl-3]-1-hydroxy-butyl-(3)-amino)-propan-2-ol] | 0.012 | 5.04 | 1.99 | 7.5 | 165 | 1.5
CC(=O)Nc1ccc(OCC(O)CNC(C)C)cc1 (centres unmarked) [4-(2-Hydroxy-3-isopropylamino-propoxy)-acetanilide, reference compound] | 0.238 | 100 | 26.5 | 100 | 110 | 1
